Values after ≈ are worked out from the molar mass of the structure shown.
Experiments:
Type in all cases: functional
KB = assay: Cytotoxicity against human KB cells; settings: for EC50: Homo sapiens, KB, read-out: ED50 (the source's name)
P388 [1] = assay: In vivo antileukemic activity against mouse P388 cells at 4 mg/kg
P388 [2] = assay: In vivo antileukemic activity against mouse P388 cells at 32 mg/kg
P388 [3] = assay: In vivo antileukemic activity against mouse P388 cells at 8 mg/kg
P388 [4] = assay: In vivo antileukemic activity against mouse P388 cells at 16 mg/kg

COc1cc2cc(c1Cl)N1CC(=O)C(C)(O)C(=O)N(C)C(C)C(=O)O[C@@H](CC1=O)[C@]1(C)O[C@H]1[C@H](C)[C@@H]1C[C@@](O)(NC(=O)O1)[C@H](OC)/C=C/C=C(\C)C2OC (stereo partly drawn)
EC50 (KB): < 0.01 µg/mL
T/C (P388 [1]): 153%

COc1cc2cc(c1Cl)N(C)C(=O)C[C@H](OC(=O)[C@H](C)N(C)C(=O)C(C)C)[C@]1(C)O[C@H]1[C@H](C)[C@@H]1C[C@@](O)(NC(=O)O1)[C@@H](OC)/C=C/C=C(\C)C2OC (stereo partly drawn)
EC50 (KB): < 0.001 µg/mL
T/C (P388 [2]): 131%

COc1cc2cc(c1Cl)N(C)C(=O)C[C@H](OC(=O)[C@H](C)N(C)C(=O)C(C)C)[C@]1(C)O[C@H]1[C@H](C)[C@@H]1C[C@@](O)(NC(=O)O1)[C@H](OC)/C=C/C=C(\C)C2O (stereo partly drawn) [COLUBRINOL]
EC50 (KB): < 0.001 µg/mL
T/C (P388 [2]): 159%

C=C(C)C(=O)N(C)[C@@H](C)C(=O)O[C@H]1CC(=O)N(C)c2cc(cc(OC)c2Cl)C(OC)/C(C)=C/C=C/[C@@H](OC)[C@@]2(O)C[C@H](OC(=O)N2)[C@@H](C)[C@@H]2O[C@@]12C (stereo partly drawn) [DEHYDROTREWIASINE]
EC50 (KB): < 0.01 µg/mL
T/C (P388 [3]): 172%

COc1cc2cc(c1Cl)N(C)C(=O)C[C@H](OC(=O)[C@H](C)NC(=O)C(C)C)[C@]1(C)O[C@H]1[C@H](C)[C@@H]1C[C@@](O)(NC(=O)O1)[C@H](OC)/C=C/C=C(\C)C2OC (stereo partly drawn) [DEMETHYLTREWIASINE]
EC50 (KB): 0.049 µg/mL (≈ 0.0666 µM)
T/C (P388 [3]): 159%

COc1cc2cc(c1Cl)NC(=O)C[C@H](OC(=O)[C@H](C)N(C)C(=O)C(C)C)[C@]1(C)O[C@H]1[C@H](C)[C@@H]1C[C@@](O)(NC(=O)O1)[C@H](OC)/C=C/C=C(\C)C2OC (stereo partly drawn) [NORTREWIASINE]
ED50 (KB): <1 ×10⁻⁴ ug/ml
T/C (P388 [4]): 155%

COc1cc2cc(c1Cl)N1CCC(C)(O)C(=O)NC(C)C(=O)O[C@@H](CC1=O)[C@]1(C)O[C@H]1[C@H](C)[C@@H]1C[C@@](O)(NC(=O)O1)[C@H](OC)/C=C/C=C(\C)C2OC (stereo partly drawn) [TREFLORINE]
ED50 (KB): 2.7 ×10⁻⁴ ug/ml
T/C (P388 [4]): 157%

COc1cc2cc(c1Cl)N1CC(O)C(C)(O)C(=O)NC(C)C(=O)O[C@@H](CC1=O)[C@]1(C)O[C@H]1[C@H](C)[C@@H]1C[C@@](O)(NC(=O)O1)[C@H](OC)/C=C/C=C(\C)C2OC (stereo partly drawn) [TRENUDINE]
ED50 (KB): 6.4 ×10⁻⁴ ug/ml
T/C (P388 [3]): 146%

COc1cc2cc(c1Cl)N(C)C(=O)C[C@H](OC(=O)[C@H](C)N(C)C(=O)C(C)C)[C@]1(C)O[C@H]1[C@H](C)[C@@H]1C[C@@](O)(NC(=O)O1)[C@H](OC)/C=C/C=C(\C)C2OC (stereo partly drawn) [TREWIASINE]
ED50 (KB): 2 ×10⁻⁴ ug/ml
T/C (P388 [4]): 154%

Reference: ChEMBL document CHEMBL1145670, “Additional New Maytansinoids from Trewia nudiflora: 10-Epitrewiasine and Nortrewiasine” (1983)
